This is an account of results in patent publication US20230051589A1, “COMPOUNDS AND COMPOSITIONS FOR TREATING CONDITIONS ASSOCIATED WITH NLRP ACTIVITY” (Novartis AG, priority 2018, published 2023).

Structures are written as SMILES.

Broadly, the IC50 is the midpoint of a concentration-inhibition curve.

The first test deals with IL-1β production in PMA-differentiated THP-1 cells. Briefly: IL-1β production in PMA-differentiated THP-1 cells stimulated with gramicidin (hTHP-1 assay, 2% fetal bovine serum; Procedures 1-3). The test is classed as cell-based, human. The following applies: Homo sapiens, THP-1, Table B3; hTHP-1 assay containing 2% fetal bovine serum, gramicidin stimulation, IL-1β readout; read-out: hTHP-1 IC50. An outline of the steps:
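PMA-primed THP-1 cells (20 ng/ml PMA, 16-18 h) in RPMI with 2% FBS were pre-incubated with compounds for 1 h, from 100 μM downward in 3-fold steps (0.37% DMSO final), then stimulated with 5 μM gramicidin for 2 h. IL-1β in the supernatant was quantified by HTRF.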
Take `NS(=O)(=NC(=O)Nc1c2c(cc3c1CC3)CCC2)c1cc2c(s1)CCNC2` (stereo not drawn) [Example 715, N′-((2,4,5,6-tetrahydro-1H-cyclobuta[f]inden-3-yl)carbamoyl)-4,5,6,7-tetrahydrothieno[3,2-c]pyridine-2-sulfonimidamide]: the IC50 lay in the range of 0.04 to 0.2 µM. On the same count and under the same terms, next, `NS(=O)(=NC(=O)Nc1c2c(cc3c1CC3)CCC2)c1sc(CN2CCC2)cc1F` (stereo not drawn) [Example 718, 5-(Azetidin-1-ylmethyl)-3-fluoro-N′-((2,4,5,6-tetrahydro-1H-cyclobuta[f]inden-3-yl)carbamoyl)thiophene-2-sulfonimidamide]: 0.2 to 1 µM. Still for that read-out and setting: next, `CNC(c1ccc(S(N)(=O)=NC(=O)Nc2c3c(cc4c2CC4)CCC3)s1)C1CC1` (stereo not drawn) [Example 719, 5-(Cyclopropyl(methylamino)methyl)-N′-((2,4,5,6-tetrahydro-1H-cyclobuta[f]inden-3-yl)carbamoyl)thiophene-2-sulfonimidamide]: 0.008 to 0.04 µM; `CNCc1csc(S(N)(=O)=NC(=O)Nc2c3c(cc4c2CC4)CCC3)c1` (stereo not drawn) [Example 722, 4-((Methylamino)methyl)-N′-((2,4,5,6-tetrahydro-1H-cyclobuta[f]inden-3-yl)carbamoyl)thiophene-2-sulfonimidamide]: 0.04 to 0.2 µM; `CNC(c1ccc(S(N)(=O)=NC(=O)Nc2c3c(cc4c2CCC4)CCC3)s1)C1CC1` (stereo not drawn) [Example 723, 5-(cyclopropyl(methylamino)methyl)-N′-((1,2,3,5,6,7-hexahydro-s-indacen-4-yl)carbamoyl)thiophene-2-sulfonimidamide]: 0.04 to 0.2 µM. Same read-out and setting: next, `NS(=O)(=NC(=O)Nc1c2c(cc3c1CCC3)CCC2)c1cc2c(s1)CCNC2` (stereo not drawn) [Example 724, N′-((1,2,3,5,6,7-hexahydro-s-indacen-4-yl)carbamoyl)-4,5,6,7-tetrahydrothieno[3,2-c]pyridine-2-sulfonimidamide]: 0.04 to 0.2 µM; `NS(=O)(=NC(=O)Nc1c2c(cc3c1CCC3)CCC2)c1sc(CNC2CCC2)cc1F` (stereo not drawn) [Example 726, 5-((Cyclobutylamino)methyl)-3-fluoro-N′-((1,2,3,5,6,7-hexahydro-s-indacen-4-yl)carbamoyl)thiophene-2-sulfonimidamide]: 0.2 to 1 µM; `CN(Cc1ccc(S(N)(=O)=NC(=O)Nc2c3c(cc4c2CC4)CCC3)c(F)c1)C1CCC1` (stereo not drawn) [Example 727, 4-((cyclobutyl(methyl)amino)methyl)-2-fluoro-N′-((2,4,5,6-tetrahydro-1H-cyclobuta[f]inden-3-yl)carbamoyl)benzenesulfonimidamide]: 1 to 5 µM. Consider `NS(=O)(=NC(=O)Nc1c2c(cc3c1CCC3)CCC2)c1ccc(-c2ccccc2CO)s1` (stereo not drawn) [Example 728, N′-((1,2,3,5,6,7-hexahydro-s-indacen-4-yl)carbamoyl)-5-(2-(hydroxymethyl)phenyl)thiophene-2-sulfonimidamide], for which the IC50 was in the range of 0.2 to 1 µM. On the same count and under the same terms, then `NS(=O)(=NC(=O)Nc1c2c(cc3c1CCC3)CCC2)c1ccc(-c2ccccc2O)s1` (stereo not drawn) [Example 729, N′-((1,2,3,5,6,7-hexahydro-s-indacen-4-yl)carbamoyl)-5-(2-hydroxyphenyl)thiophene-2-sulfonimidamide], with 1 to 5 µM; and `NS(=O)(=NC(=O)Nc1c2c(cc3c1CCC3)CCC2)c1ccc([C@@H]2CCCN2)s1` (stereo partly drawn) [Example 730, N′-((1,2,3,5,6,7-hexahydro-s-indacen-4-yl)carbamoyl)-5-((S)-pyrrolidin-2-yl)thiophene-2-sulfonimidamide], with 0.2 to 1 µM. On the same count and under the same terms, next, `NS(=O)(=NC(=O)Nc1c2c(cc3c1CCC3)CCC2)c1ccc([C@H]2CCCN2)s1` (stereo partly drawn) [Example 731, N′-((1,2,3,5,6,7-hexahydro-s-indacen-4-yl)carbamoyl)-5-((R)-pyrrolidin-2-yl)thiophene-2-sulfonimidamide]: 0.2 to 1 µM.

Staying with this test, now noted: Homo sapiens, THP-1, hTHP-1 assay containing 2% fetal bovine serum, Table B2, class symbols; read-out: IC50.
Turning to `COc1ccc(Cn2nc(S(N)(=O)=NC(=O)Nc3c4c(cc5c3CCC5)CCC4)cc2C(C)(C)O)cc1` (stereo not drawn) [Example 682, N′-((1,2,3,5,6,7-hexahydro-s-indacen-4-yl)carbamoyl)-5-(2-hydroxypropan-2-yl)-1-(4-methoxybenzyl)-1H-pyrazole-3-sulfonimidamide], the IC50 was in the range of 0.2 to 1 µM.

With `C[C@@](O)(COCCOCc1ccccc1)c1ncc(S(N)(=O)=NC(=O)Nc2c3c(cc4c2CCC4)CCC3)s1` (stereo partly drawn) [Example 683, 2-((R)-1-(2-(benzyloxy)ethoxy)-2-hydroxypropan-2-yl)-N′-((1,2,3,5,6,7-hexahydro-s-indacen-4-yl)carbamoyl)thiazole-5-sulfonimidamide], the IC50 lay in the range of 0.2 to 1 µM. On the same count and under the same terms, then `COCCOC[C@@](C)(O)c1ncc(S(N)(=O)=NC(=O)Nc2c3c(cc4c2CCC4)CCC3)s1` (stereo partly drawn) [Example 684, N′-((1,2,3,5,6,7-hexahydro-s-indacen-4-yl)carbamoyl)-2-((R)-2-hydroxy-1-(2-methoxyethoxy)propan-2-yl)thiazole-5-sulfonimidamide], with 0.04 to 0.2 µM; and `C=CCNCc1ccc([S@](N)(=O)=NC(=O)Nc2c3c(cc4c2CCC4)CCC3)cc1` [Example 699, (R)-4-((allylamino)methyl)-N′-((1,2,3,5,6,7-hexahydro-s-indacen-4-yl)carbamoyl)-benzenesulfonimidamide], with 1 to 5 µM; and `CCNCc1ccc([S@](N)(=O)=NC(=O)Nc2c3c(cc4c2CCC4)CCC3)cc1` [Example 700, (R)-4-((ethylamino)methyl)-N′-((1,2,3,5,6,7-hexahydro-s-indacen-4-yl)carbamoyl)-benzenesulfonimidamide], with 1 to 5 µM. Take `COCCNCc1ccc([S@](N)(=O)=NC(=O)Nc2c3c(cc4c2CCC4)CCC3)cc1` [Example 701, (R)-N′-((1,2,3,5,6,7-hexahydro-s-indacen-4-yl)carbamoyl)-4-(((2-methoxyethyl)amino)-methyl)benzenesulfonimidamide]: the IC50 is 1 to 5 µM.

Regarding `CCC(C)NCc1ccc([S@](N)(=O)=NC(=O)Nc2c3c(cc4c2CCC4)CCC3)cc1` (stereo partly drawn) [Example 702, (R)-4-((sec-butylamino)methyl)-N′-((1,2,3,5,6,7-hexahydro-s-indacen-4-yl)carbamoyl)-benzenesulfonimidamide], the IC50 was in the range of 1 to 5 µM. In the case of `N[S@@](=O)(=NC(=O)Nc1c2c(cc3c1CCC3)CCC2)c1ccc(CNC2CCOCC2)cc1` [Example 703, (R)-N′-((1,2,3,5,6,7-hexahydro-s-indacen-4-yl)carbamoyl)-4-(((tetrahydro-2H-pyran-4-yl)-amino)methyl)benzenesulfonimidamide], the IC50 fell in the range of 1 to 5 µM.

Consider `N[S@@](=O)(=NC(=O)Nc1c2c(cc3c1CCC3)CCC2)c1ccc(CNC2CCCCCC2)cc1` [Example 704, (R)-4-((cycloheptylamino)methyl)-N′-((1,2,3,5,6,7-hexahydro-s-indacen-4-yl)-carbamoyl)-benzenesulfonimidamide], for which the half-maximal inhibitory concentration (IC50) fell in the range of 1 to 5 µM. In the case of `N[S@@](=O)(=NC(=O)Nc1c2c(cc3c1CCC3)CCC2)c1ccc(CNC2CCC2)cc1` [Example 705, (R)-4-((cyclobutylamino)methyl)-N′-((1,2,3,5,6,7-hexahydro-s-indacen-4-yl)carbamoyl)-benzenesulfonimidamide], the IC50 was 1 to 5 µM. Same read-out and setting: next, `CC(C)NCc1ccc([S@](N)(=O)=NC(=O)Nc2c3c(cc4c2CCC4)CCC3)cc1` [Example 706, (R)-N′-((1,2,3,5,6,7-hexahydro-s-indacen-4-yl)carbamoyl)-4-((isopropylamino)methyl)-benzenesulfonimidamide]: 1 to 5 µM; `CN1CCN(Cc2ccc([S@](N)(=O)=NC(=O)Nc3c4c(cc5c3CCC5)CCC4)cc2)CC1` [Example 707, (R)-N′-((1,2,3,5,6,7-hexahydro-s-indacen-4-yl)carbamoyl)-4-((4-methylpiperazin-1-yl)-methyl)benzenesulfonimidamide]: 1 to 5 µM. Regarding `N[S@@](=O)(=NC(=O)Nc1c2c(cc3c1CCC3)CCC2)c1ccc(CNCC(F)F)cc1` [Example 708, (R)-4-(((2,2-difluoroethyl)amino)methyl)-N′-((1,2,3,5,6,7-hexahydro-s-indacen-4-yl)-carbamoyl)benzenesulfonimidamide], the IC50 was 1 to 5 µM.

`CN(Cc1ccc([S@](N)(=O)=NC(=O)Nc2c3c(cc4c2CCC4)CCC3)cc1)C1CCC1` [Example 709, (R)-4-((cyclobutyl(methyl)amino)methyl)-N′-((1,2,3,5,6,7-hexahydro-s-indacen-4-yl)-carbamoyl)benzenesulfonimidamide]: the IC50 lay within 0.2 to 1 µM.

Turning to `COc1ccc([C@@H](C)NS(=O)(=NC(=O)Nc2c3c(cc4c2CCC4)CCC3)c2cnc(C(C)(C)O)s2)cc1` (stereo partly drawn) [Example 712, N′-((1,2,3,5,6,7-hexahydro-s-indacen-4-yl)carbamoyl)-2-(2-hydroxypropan-2-yl)-N-((R)-1-(4-methoxyphenyl)ethyl)thiazole-5-sulfonimidamide], the IC50 was 5 to 30 µM. Turning to `C[C@](O)(CO)c1ncc([S@](N)(=O)=NC(=O)Nc2c3c(cc4c2CCC4)CCC3)s1` [Example 713, (R)-2-((S)-1,2-dihydroxypropan-2-yl)-N-((1,2,3,5,6,7-hexahydro-s-indacen-4-yl)carbamoyl)thiazole-5-sulfonimidamide], the IC50 lay within 0.008 to 0.04 µM.

As for `C[C@@](O)(CO)c1ncc([S@](N)(=O)=NC(=O)Nc2c3c(cc4c2CCC4)CCC3)s1` [Example 714, (R)-2-((R)-1,2-dihydroxypropan-2-yl)-N-((1,2,3,5,6,7-hexahydro-s-indacen-4-yl)carbamoyl)thiazole-5-sulfonimidamide], the 50% inhibitory concentration (IC50) is 0.008 to 0.04 µM.

The test is the same for the next values; noted with them: Table B3; hTHP-1 assay containing 2% fetal bovine serum, gramicidin stimulation, IL-1β readout; read-out: hTHP-1 IC50.
Turning to `CC(NC1CCC1)c1ccc(S(N)(=O)=NC(=O)Nc2c3c(cc4c2CC4)CCC3)c(F)c1` (stereo not drawn) [Example 725, 4-(1-(cyclobutylamino)ethyl)-2-fluoro-N′-((2,4,5,6-tetrahydro-1H-cyclobuta[f]inden-3-yl)carbamoyl)benzenesulfonimidamide], the IC50 lay within 0.2 to 1 µM.
